From US11673889B2, “Substituted imidazo[4,5-c][1,8]naphthyridines as phosphodiesterase inhibitors” (Nanjing Zhengxiang Pharmaceuticals Co., Ltd., priority 2019, dated 2023)

How the values were obtained:
ENPP-1, MDA-MB-231 cells = target: T1, ENPP-1, MDA-MB-231 cells (Homo sapiens, UniProt P22413); experiment: cell-based; settings: for inhibition at 20 µM: MDA-MB-231, read-out: % Inhibition (at 20 μM)
T1 sequence (P22413 1-925): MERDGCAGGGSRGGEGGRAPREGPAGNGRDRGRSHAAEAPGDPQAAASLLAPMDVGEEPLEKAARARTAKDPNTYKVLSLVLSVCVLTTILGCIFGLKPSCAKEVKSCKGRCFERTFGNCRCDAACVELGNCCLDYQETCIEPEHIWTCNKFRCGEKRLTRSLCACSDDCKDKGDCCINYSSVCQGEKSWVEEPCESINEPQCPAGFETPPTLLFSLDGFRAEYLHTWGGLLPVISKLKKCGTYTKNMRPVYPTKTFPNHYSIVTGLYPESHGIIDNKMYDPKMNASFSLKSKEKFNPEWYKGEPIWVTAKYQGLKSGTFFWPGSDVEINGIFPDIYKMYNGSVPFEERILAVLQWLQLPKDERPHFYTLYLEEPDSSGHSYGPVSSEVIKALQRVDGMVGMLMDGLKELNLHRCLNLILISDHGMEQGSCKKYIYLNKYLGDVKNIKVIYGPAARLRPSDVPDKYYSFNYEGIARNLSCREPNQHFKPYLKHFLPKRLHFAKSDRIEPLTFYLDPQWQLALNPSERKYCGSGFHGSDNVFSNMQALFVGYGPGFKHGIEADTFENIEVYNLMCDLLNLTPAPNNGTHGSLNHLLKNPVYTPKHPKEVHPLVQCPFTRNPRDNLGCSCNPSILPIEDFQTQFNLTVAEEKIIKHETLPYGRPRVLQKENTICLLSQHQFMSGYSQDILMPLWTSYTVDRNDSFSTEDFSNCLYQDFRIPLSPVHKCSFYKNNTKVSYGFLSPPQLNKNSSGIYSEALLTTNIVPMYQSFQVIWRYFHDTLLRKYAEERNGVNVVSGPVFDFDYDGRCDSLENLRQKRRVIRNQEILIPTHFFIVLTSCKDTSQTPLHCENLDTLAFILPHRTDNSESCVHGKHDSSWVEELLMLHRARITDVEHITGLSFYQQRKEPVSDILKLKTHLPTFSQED

human soluble ENPP1 [1] = target: T2, human soluble ENPP1 (Homo sapiens, UniProt P22413); experiment: ENPP1 activity assay using p-Nitrophenyl-5′-TMP as a substrate; type: biochemical
T2 construct: 20 ng of human soluble ENPP1
T2 sequence (P22413 103-925 limits assumed): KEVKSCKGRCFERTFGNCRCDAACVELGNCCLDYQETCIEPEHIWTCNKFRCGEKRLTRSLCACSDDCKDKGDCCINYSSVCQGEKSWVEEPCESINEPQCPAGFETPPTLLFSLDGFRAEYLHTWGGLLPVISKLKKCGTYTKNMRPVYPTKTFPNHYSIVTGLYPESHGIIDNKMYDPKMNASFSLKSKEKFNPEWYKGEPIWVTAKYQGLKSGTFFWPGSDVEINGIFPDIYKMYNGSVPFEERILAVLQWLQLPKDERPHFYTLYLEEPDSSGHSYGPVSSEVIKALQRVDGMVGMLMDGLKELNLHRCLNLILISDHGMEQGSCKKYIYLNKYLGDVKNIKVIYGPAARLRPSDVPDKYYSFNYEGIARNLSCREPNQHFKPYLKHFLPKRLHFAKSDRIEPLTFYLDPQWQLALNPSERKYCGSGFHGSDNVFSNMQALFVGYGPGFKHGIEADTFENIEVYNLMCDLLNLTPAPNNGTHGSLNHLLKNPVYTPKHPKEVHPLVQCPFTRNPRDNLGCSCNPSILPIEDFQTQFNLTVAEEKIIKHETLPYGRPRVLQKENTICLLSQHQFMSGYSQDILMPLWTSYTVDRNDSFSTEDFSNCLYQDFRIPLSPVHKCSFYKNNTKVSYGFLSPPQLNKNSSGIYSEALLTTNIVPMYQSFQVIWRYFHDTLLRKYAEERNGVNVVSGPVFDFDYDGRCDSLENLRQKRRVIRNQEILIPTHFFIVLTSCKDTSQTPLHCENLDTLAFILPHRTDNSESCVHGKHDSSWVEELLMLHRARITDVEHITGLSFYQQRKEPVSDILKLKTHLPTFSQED
Outline: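 Human soluble ENPP1 (20 ng) was preincubated with inhibitor for 30 min at room temperature. TMP-pNP was then added as a 2 mM […] solution and incubated 1 h at RT, with p-nitrophenol formation read by OD. IC50 came from four-parameter fits of % inhibition relative to no-inhibitor and blank controls.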

Pharmacokinetics in mice = type: in vivo; settings: mouse, plasma, male CD-1 mice, 1 mg/kg, iv; for Vd: read-out: Vdss
Protocol: A dosing solution of test sample was prepared at 1.0 mg/mL in 5% DMSO/40% PEG400/55% water and administered to male CD-1 mice (4-6 weeks old, 20-30 grams, 3 animals each group) via intravenous (IV) bolus at 1 mg/kg and by oral gavage (PO) at 5 mg/kg. Blood samples (˜0.03 mL each time point) were collected via the jugular vein into tubes containing sodium heparin as the anticoagulant at 0.033, 0.083, 0.25, 0.5, 1, 2, 4, 8 and 24 hours post dose for IV administration and 0.083, 0.25, 0.5, 1, 2, 4, 8 and 24 hours post dose for PO administration. The blood samples were then centrifuged for 5 minutes in a centrifuge refrigerated at 4° C. The resultant plasma samples were analyzed using LC/MS/MS to determine concentrations of test sample. Non-compartmental model with WinNonlin (Phoenix™, version 8.0) software was used to calculate pharmacokinetic (PK) parameters.

human soluble ENPP1 [2] = target: T2, human soluble ENPP1; experiment: ENPP1 activity assay using p-Nitrophenyl-5′-AMP as a substrate; type: biochemical
Outline: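 Human soluble ENPP1 (35 ng) preincubated with inhibitor 30 min at RT, then p-nitrophenyl-5′-AMP added (3 mM solution, 2× final) and incubated 1 h at RT. p-Nitrophenolate release read at OD 405 nm; % inhibition vs no-inhibitor and blank controls, IC50 from four-parameter fit.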

SMILES	IC50 (ENPP-1, MDA-MB-231 cells)	inhibition at 20 µM (ENPP-1, MDA-MB-231 cells)	IC50 (human soluble ENPP1 [1])	AUC (Pharmacokinetics in mice)	clearance (Pharmacokinetics in mice)	half-life (Pharmacokinetics in mice)	Vd (Pharmacokinetics in mice)	IC50 (human soluble ENPP1 [2])
COc1ccc2c(ncc3nc(C)n(Cc4cc(F)c(S(N)(=O)=O)cc4F)c32)n1 [Compound 70, 2,5-difluoro-4-((7-methoxy-2-methyl-1H-imidazo[4,5-c][1,8]naphthyridin-1-yl)methyl)benzenesulfonamide]	290 nM	85%	0.64 nM	668 ng·h/mL	26 mL/min/kg	2.6 h	4.3 L/kg	1.2 nM
COc1ccc2c(ncc3[nH]c(=O)n(Cc4ccc(S(N)(=O)=O)cc4)c32)n1 [Compound 38, 4-((7-methoxy-2-oxo-2,3-dihydro-1H-imidazo[4,5-c][1,8]naphthyridin-1-yl)methyl)benzenesulfonamide]			0.31 nM	370 ng·h/mL	45 mL/min/kg	1.9 h	3.3 L/kg	0.75 nM
COc1ccc2c(ncc3ncn(Cc4ccc(S(N)(=O)=O)c(C(F)(F)F)c4)c32)n1 [Compound 65, 4-((7-methoxy-1H-imidazo[4,5-c][1,8]naphthyridin-1-yl)methyl)-2-(trifluoromethyl)benzenesulfonamide]	1600 nM	75%	3 nM	185 ng·h/mL	92 mL/min/kg	0.72 h	3.1 L/kg	8.7 nM
COc1ccc2c(ncc3ncn(CC4CN(S(N)(=O)=O)C4)c32)n1 [Compound 52, 3-((7-methoxy-1H-imidazo[4,5-c][1,8]naphthyridin-1-yl)methyl)azetidine-1-sulfonamide]	1300 nM	79%	0.54 nM	179 ng·h/mL	103 mL/min/kg	0.35 h	1.1 L/kg	2.2 nM
COc1ccc2c(ncc3ncn(Cc4ccc(S(N)(=O)=O)c(F)c4)c32)n1 [Compound 61, 2-fluoro-4-((7-methoxy-1H-imidazo[4,5-c][1,8]naphthyridin-1-yl)methyl)benzenesulfonamide]	780 nM	80%	0.53 nM	271 ng·h/mL	62 mL/min/kg	1.4 h	4.5 L/kg	1.9 nM
COc1ccc2c(ncc3nc(C)n(Cc4ccc(S(N)(=O)=O)c(F)c4)c32)n1 [Compound 71, 2-fluoro-4-((7-methoxy-2-methyl-1H-imidazo[4,5-c][1,8]naphthyridin-1-yl)methyl)benzenesulfonamide]	1100 nM	76%	1 nM	288 ng·h/mL	60 mL/min/kg	0.74 h	2.8 L/kg	2.9 nM
COc1ccc2c(ncc3ncn(Cc4ccc(S(N)(=O)=O)cc4F)c32)n1 [Compound 62, 3-fluoro-4-((7-methoxy-1H-imidazo[4,5-c][1,8]naphthyridin-1-yl)methyl)benzenesulfonamide]	45 nM	89%	0.1 nM	163 ng·h/mL	105 mL/min/kg	4.9 h	39 L/kg	1.5 nM
COc1ccc2c(ncc3ncn([C@H](C)c4ccc(S(N)(=O)=O)cc4)c32)n1 [Compound 54, (R)-4-(1-(7-methoxy-1H-imidazo[4,5-c][1,8]naphthyridin-1-yl)ethyl)benzenesulfonamide]	900 nM	82%	0.53 nM					1.8 nM

Further lines, results first:

IC50 (ENPP-1, MDA-MB-231 cells)	inhibition at 20 µM (ENPP-1, MDA-MB-231 cells)	IC50 (human soluble ENPP1 [1])	AUC (Pharmacokinetics in mice)	clearance (Pharmacokinetics in mice)	half-life (Pharmacokinetics in mice)	Vd (Pharmacokinetics in mice)	IC50 (human soluble ENPP1 [2])	SMILES
1100 nM	79%	1.78 nM	260 ng·h/mL	65 mL/min/kg	2 h	8.9 L/kg	4.4 nM	COc1ccc2c(ncc3nnn(Cc4ccc(S(N)(=O)=O)c(F)c4)c32)n1 [Compound 120, 2-fluoro-4-((7-methoxy-1H-[1,2,3]triazolo[4,5-c][1,8]naphthyridin-1-yl)methyl)benzenesulfonamide]
270 nM	81%	0.36 nM	267 ng·h/mL	63 mL/min/kg	0.6 h	1.6 L/kg	0.96 nM	COc1ccc2c(ncc3nc(C)n(Cc4ccc(S(N)(=O)=O)nc4)c32)n1 [Compound 73, 5-((7-methoxy-2-methyl-1H-imidazo[4,5-c][1,8]naphthyridin-1-yl)methyl)pyridine-2-sulfonamide]
560 nM	82%	0.8 nM	253 ng·h/mL	66 mL/min/kg	0.86 h	2.2 L/kg	2.4 nM	COc1ccc2c(ncc3nc(CC#N)n(Cc4ccc(S(N)(=O)=O)c(F)c4)c32)n1 [Compound 82, 4-((2-(cyanomethyl)-7-methoxy-1H-imidazo[4,5-c][1,8]naphthyridin-1-yl)methyl)-2-fluorobenzenesulfonamide]
85 nM	81%	0.09 nM	138 ng·h/mL	123 mL/min/kg	1.4 h	14 L/kg	0.12 nM	COc1ccc2c(ncc3nc(C4CC4)n(Cc4ccc(S(N)(=O)=O)cn4)c32)n1 [Compound 74, 6-((2-cyclopropyl-7-methoxy-1H-imidazo[4,5-c][1,8]naphthyridin-1-yl)methyl)pyridine-3-sulfonamide]
4900 nM	63%	6.9 nM					23 nM	COc1ccc2c(ncc3nc(CS(C)(=O)=O)n(Cc4ccc(S(N)(=O)=O)c(F)c4)c32)n1 [Compound 81, 2-fluoro-4-((7-methoxy-2-((methylsulfonyl)methyl)-1H-imidazo[4,5-c][1,8]naphthyridin-1-yl)methyl)benzenesulfonamide]
810 nM	78%	0.56 nM					1.1 nM	COc1ccc2c(ncc3[nH]c(=O)n(CC4CC(OS(N)(=O)=O)C4)c32)n1 (centres unmarked) [Compound 97, 3-((7-methoxy-2-oxo-2,3-dihydro-1H-imidazo[4,5-c][1,8]naphthyridin-1-yl)methyl)cyclobutyl sulfamate]
